Measurements from ChEMBL document CHEMBL4359837, “Discovery of 2-(4-Chloro-3-(trifluoromethyl)phenyl)-N-(4-((6,7-dimethoxyquinolin-4-yl)oxy)phenyl)acetamide (CHMFL-KIT-64) as a Novel Orally Available Potent Inhibitor against Broad-Spectrum Mutants of c-KIT Kinase for Gastrointestinal Stromal Tumors” (J Med Chem, 2019).
Activity calls are given as the source filed them. No cut-off for these calls is given here.

What was measured:
[1] = test system: Mus musculus; assay: Antitumor activity against mouse BAF3(transformed) cells harboring c-KIT D820G mutant implanted in BALB/c nu mouse assessed as tumor growth inhibition administered via oral gavage for 9 days; assay type: functional
[2] = test system: Mus musculus; assay: Antitumor activity against mouse BAF3(transformed) cells harboring c-KIT T670I mutant implanted in BALB/c nu mouse assessed as tumor growth inhibition administered via oral gavage for 11 days; assay type: functional
[3] = Antitumor activity against mouse BAF3(transformed) cells harboring c-KIT Y823D mutant implanted in BALB/c nu mouse assessed as tumor weight at 80 mg/kg/day, po administered via gavage for 9 days (reference value: 0.96 g); assay type: functional
[4] = target: Mast/stem cell growth factor receptor Kit (Homo sapiens, UniProt P10721, T670I/V559D); assay: Inhibition of human N-terminal GST-tagged KIT V559D/T670I double mutant (544 to end residues) expressed in baculovirus infected Sf9 insect cells by Lanthascreen Eu-binding method
[5] = Inhibition of recombinant human GST-tagged FLT4 cytoplasmic domain Q890H/V1128L/H1146R mutant (800 to 1297 residues) expressed in baculovirus expression system by Z-lyte assay
[6] = target: Proto-oncogene tyrosine-protein kinase receptor Ret (Homo sapiens, UniProt P07949); assay: Inhibition of recombinant human RET cytoplasmic domain (658 to 1114 residues) expressed in baculovirus expression system by Z-lyte assay
[7] = target: Macrophage colony-stimulating factor 1 receptor (Mus musculus) (UniProt P09581); assay: Inhibition of CSF1R in mouse BAF3(transformed) cells assessed as growth inhibition after 72 hrs by CCK8 assay
[8] = target: Vascular endothelial growth factor receptor 3 (Mus musculus) (UniProt P35917); assay: Inhibition of FLT4 in mouse BAF3(transformed) cells assessed as growth inhibition after 72 hrs by CCK8 assay
[9] = target: T1, Mast/stem cell growth factor receptor Kit (Homo sapiens, UniProt P10721, 560-578DEL); assay type: cell-based, GISTT1
[10] = target: T2, Mast/stem cell growth factor receptor Kit (Homo sapiens, UniProt P10721, 560-578DEL/T670I); assay type: cell-based, GISTT1
[11] = target: T2, Mast/stem cell growth factor receptor Kit; assay type: cell-based, GISTT1; remark: listed apart in the source
[12] = target: T1, Mast/stem cell growth factor receptor Kit; assay type: cell-based, GISTT1; remark: listed apart in the source
[13] = target: T1, Mast/stem cell growth factor receptor Kit; assay type: cell-based, GISTT1; remark: listed apart in the source
[14] = target: T2, Mast/stem cell growth factor receptor Kit; assay type: cell-based, GISTT1; remark: listed apart in the source
[15] = target: T2, Mast/stem cell growth factor receptor Kit; assay type: cell-based, GISTT1; remark: listed apart in the source
[16] = target: T2, Mast/stem cell growth factor receptor Kit; assay type: cell-based, GISTT1; remark: listed apart in the source
[17] = target: T2, Mast/stem cell growth factor receptor Kit
[18] = target: T2, Mast/stem cell growth factor receptor Kit; remark: listed apart in the source
[19] = target: RAC-alpha serine/threonine-protein kinase (Homo sapiens) (UniProt P31749); assay type: cell-based
[20] = test system: GISTT1; assay type: functional, cell-based; settings: Homo sapiens
[21] = test system: GISTT1; assay type: functional, cell-based; settings: Homo sapiens; remark: listed apart in the source
[22] = AUC (0 to t) in Sprague-Dawley rat at 1 mg/kg, iv by LC-MS/MS analysis; assay type: ADME, organism-based; settings: in vivo
[23] = Half life in Sprague-Dawley rat at 1 mg/kg, iv by LC-MS/MS analysis; assay type: ADME, organism-based; settings: in vivo
[24] = Cmax in Sprague-Dawley rat at 1 mg/kg, iv by LC-MS/MS analysis; assay type: ADME, organism-based; set-up: dose 1 mg/kg, route intravenous; settings: in vivo
[25] = AUC (0 to t) in Sprague-Dawley rat at 10 mg/kg, po by LC-MS/MS analysis; assay type: ADME, organism-based; settings: in vivo
[26] = Tmax in Sprague-Dawley rat at 10 mg/kg, po by LC-MS/MS analysis; assay type: ADME, organism-based; settings: in vivo
[27] = Cmax in Sprague-Dawley rat at 10 mg/kg, po by LC-MS/MS analysis; assay type: ADME, organism-based; set-up: dose 10 mg/kg, route oral; settings: in vivo
[28] = AUC (0 to t) in mouse at 10 mg/kg, po by LC-MS/MS analysis; assay type: ADME, organism-based; settings: in vivo
[29] = Tmax in mouse at 10 mg/kg, po by LC-MS/MS analysis; assay type: ADME, organism-based; settings: in vivo
[30] = Half life in mouse at 10 mg/kg, po by LC-MS/MS analysis; assay type: ADME, organism-based; settings: in vivo
[31] = Half life in Beagle dog at 1 mg/kg, iv by LC-MS/MS analysis; assay type: ADME, organism-based, Canis lupus familiaris; settings: in vivo
[32] = Cmax in Beagle dog at 1 mg/kg, iv by LC-MS/MS analysis; assay type: ADME, organism-based, Canis lupus familiaris; set-up: dose 1 mg/kg, route intravenous; settings: in vivo
[33] = test system: Mus musculus; assay type: functional, organism-based; settings: BALB/c, 80 mg/kg, TDE = time-dependent effect
[34] = test system: Mus musculus; assay type: functional, organism-based; settings: BALB/c, 80 mg/kg
[35] = test system: Mus musculus; assay type: functional, organism-based; settings: BALB/c, 80 mg/kg; remark: listed apart in the source
[36] = Antitumor activity against mouse BAF3(transformed) cells harboring c-KIT T670I mutant implanted in BALB/c nu mouse assessed as tumor growth inhibition at 100 mg/kg/day, po administered via gavage for 11 days relative to control; assay type: functional; settings: 264 h, read-out: TGI
[37] = Antitumor activity against mouse BAF3(transformed) cells harboring c-KIT D820G mutant implanted in BALB/c nu mouse assessed as tumor growth inhibition at 40 mg/kg/day, po administered via gavage for 9 days relative to control; assay type: functional; settings: 216 h, read-out: TGI
[38] = Antitumor activity against mouse BAF3(transformed) cells harboring c-KIT D820G mutant implanted in BALB/c nu mouse assessed as tumor growth inhibition at 80 mg/kg/day, po administered via gavage for 9 days relative to control; assay type: functional; settings: 216 h, read-out: TGI
[39] = test system: Mus musculus; assay: Antitumor activity against mouse BAF3(transformed) cells harboring c-KIT Y823D mutant implanted in BALB/c nu mouse assessed as tumor growth inhibition administered via oral gavage for 9 days; assay type: functional
[40] = test system: GISTT1; assay type: functional, Homo sapiens; settings: Mus musculus, GISTT1, po, 672 h; read-out: TGI
[41] = test system: GISTT1; assay type: functional, Homo sapiens
[42] = test system: Homo sapiens; assay type: functional; settings: 40 mg/kg
[43] = test system: Homo sapiens; assay type: functional, cell-based
[44] = test system: Mast/stem cell growth factor receptor Kit (Homo sapiens), P10721 [N822K]; settings: Mus musculus
Description: Inhibition of c-KIT N822K mutant in mouse BAF3(transformed) cells assessed as growth inhibition after 72 hrs by CCK8 assay

[45] = test system: Mast/stem cell growth factor receptor Kit (Homo sapiens), P10721 [K642E]
[46] = test system: Mast/stem cell growth factor receptor Kit (Homo sapiens), P10721 [UNDEFINED MUTATION]; settings: 0.1 uM
Description: Inhibition of c-KIT 560 to 578 deletion/T670I mutant in human GIST5R assessed as reduction in STAT3 phosphorylation at Y705 residue at 0.1 uM measured after 2 hrs by Western blot analysis

[47] = target: RAC-alpha serine/threonine-protein kinase (Homo sapiens) (UniProt P31749); settings: 0.1 uM
Description: Inhibition of AKT autophosphorylation at T308 residue in human GIST5R cells harboring c-KIT 560 to 578 deletion/T670I mutant at 0.1 uM measured after 2 hrs by Western blot analysis

[48] = test system: Mast/stem cell growth factor receptor Kit (Homo sapiens), P10721 [UNDEFINED MUTATION]; settings: GISTT1, 0.1 uM
Description: Inhibition of c-KIT 560 to 578 deletion mutant in human GISTT1 cells assessed as reduction in pS6 phosphorylation at S236 residue at 0.1 uM measured after 2 hrs by Western blot analysis

[49] = test system: Mast/stem cell growth factor receptor Kit (Homo sapiens), P10721 [UNDEFINED MUTATION]; settings: GISTT1, 0.1 uM; remark: listed apart in the source
Description: Inhibition of c-KIT 560 to 578 deletion/T670I mutant in human GISTT1 cells assessed as reduction in AKT phosphorylation at T308 residue at 0.1 uM measured after 2 hrs by Western blot analysis

[50] = test system: Mast/stem cell growth factor receptor Kit (Homo sapiens), P10721 [UNDEFINED MUTATION]; settings: GISTT1, 0.1 uM; remark: listed apart in the source
Description: Inhibition of c-KIT 560 to 578 deletion/T670I mutant in human GISTT1 cells assessed as reduction in AKT phosphorylation at S473 residue at 0.1 uM measured after 2 hrs by Western blot analysis

[51] = test system: Mast/stem cell growth factor receptor Kit (Homo sapiens), P10721 [UNDEFINED MUTATION]; settings: GISTT1, 0.1 uM; remark: listed apart in the source
Description: Inhibition of c-KIT 560 to 578 deletion/T670I mutant in human GISTT1 cells assessed as reduction in ERK phosphorylation at T202 residue at 0.1 uM measured after 2 hrs by Western blot analysis

[52] = test system: Mast/stem cell growth factor receptor Kit (Homo sapiens), P10721 [UNDEFINED MUTATION]; settings: 0.1 uM; remark: listed apart in the source
Description: Inhibition of c-KIT 560 to 578 deletion/T670I mutant in human GIST5R assessed as reduction in AKT phosphorylation at S473 residue at 0.1 uM measured after 2 hrs by Western blot analysis

Chain of Mast/stem cell growth factor receptor Kit (Homo sapiens), P10721 [UNDEFINED MUTATION] (P10721 whole entry, looked up, change not shown): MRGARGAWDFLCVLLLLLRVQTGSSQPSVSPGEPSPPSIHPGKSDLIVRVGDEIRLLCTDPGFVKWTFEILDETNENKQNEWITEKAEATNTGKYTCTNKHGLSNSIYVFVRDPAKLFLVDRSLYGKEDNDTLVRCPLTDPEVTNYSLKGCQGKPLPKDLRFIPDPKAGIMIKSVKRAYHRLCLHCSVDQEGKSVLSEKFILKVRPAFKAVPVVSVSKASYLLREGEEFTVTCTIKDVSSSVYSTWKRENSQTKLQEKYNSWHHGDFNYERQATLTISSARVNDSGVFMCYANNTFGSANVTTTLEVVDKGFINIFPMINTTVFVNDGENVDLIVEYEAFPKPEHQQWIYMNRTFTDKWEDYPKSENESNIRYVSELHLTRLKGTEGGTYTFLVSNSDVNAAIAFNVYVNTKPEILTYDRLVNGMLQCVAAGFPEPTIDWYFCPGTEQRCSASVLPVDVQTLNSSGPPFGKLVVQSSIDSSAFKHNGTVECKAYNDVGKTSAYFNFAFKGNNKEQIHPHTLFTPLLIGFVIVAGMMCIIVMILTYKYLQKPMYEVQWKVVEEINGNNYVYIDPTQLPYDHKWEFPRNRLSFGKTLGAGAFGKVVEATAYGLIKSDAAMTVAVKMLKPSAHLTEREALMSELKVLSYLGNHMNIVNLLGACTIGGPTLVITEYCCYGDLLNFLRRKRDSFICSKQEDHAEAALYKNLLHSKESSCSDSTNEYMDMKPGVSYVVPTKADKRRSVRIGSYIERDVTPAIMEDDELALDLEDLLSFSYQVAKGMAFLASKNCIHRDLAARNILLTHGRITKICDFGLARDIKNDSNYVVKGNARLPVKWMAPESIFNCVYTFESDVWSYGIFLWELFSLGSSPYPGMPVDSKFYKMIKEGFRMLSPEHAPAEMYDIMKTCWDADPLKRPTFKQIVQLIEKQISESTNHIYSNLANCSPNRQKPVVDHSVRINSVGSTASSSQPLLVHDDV
T2 sequence (P10721 whole entry, looked up, stated change not applied): as the sequence (P10721 whole entry, looked up, change not shown) above
T1 sequence (P10721 whole entry, looked up, stated change not applied): as the sequence (P10721 whole entry, looked up, change not shown) above
Chain of RAC-alpha serine/threonine-protein kinase (Homo sapiens) (P31749 whole entry): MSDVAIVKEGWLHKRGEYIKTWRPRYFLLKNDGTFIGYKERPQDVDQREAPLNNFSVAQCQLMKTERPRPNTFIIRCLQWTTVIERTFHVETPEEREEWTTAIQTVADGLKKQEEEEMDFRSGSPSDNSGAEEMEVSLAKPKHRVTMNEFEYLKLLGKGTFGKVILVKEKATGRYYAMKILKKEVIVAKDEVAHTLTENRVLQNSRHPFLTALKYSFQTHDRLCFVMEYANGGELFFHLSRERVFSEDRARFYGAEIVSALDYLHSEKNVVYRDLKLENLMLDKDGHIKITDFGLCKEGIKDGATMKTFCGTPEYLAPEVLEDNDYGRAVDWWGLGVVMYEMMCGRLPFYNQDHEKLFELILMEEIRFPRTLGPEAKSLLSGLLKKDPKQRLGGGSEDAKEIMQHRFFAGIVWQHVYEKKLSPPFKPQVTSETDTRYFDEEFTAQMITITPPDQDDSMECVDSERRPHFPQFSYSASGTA
Chain of Vascular endothelial growth factor receptor 3 (Mus musculus) (P35917 whole entry): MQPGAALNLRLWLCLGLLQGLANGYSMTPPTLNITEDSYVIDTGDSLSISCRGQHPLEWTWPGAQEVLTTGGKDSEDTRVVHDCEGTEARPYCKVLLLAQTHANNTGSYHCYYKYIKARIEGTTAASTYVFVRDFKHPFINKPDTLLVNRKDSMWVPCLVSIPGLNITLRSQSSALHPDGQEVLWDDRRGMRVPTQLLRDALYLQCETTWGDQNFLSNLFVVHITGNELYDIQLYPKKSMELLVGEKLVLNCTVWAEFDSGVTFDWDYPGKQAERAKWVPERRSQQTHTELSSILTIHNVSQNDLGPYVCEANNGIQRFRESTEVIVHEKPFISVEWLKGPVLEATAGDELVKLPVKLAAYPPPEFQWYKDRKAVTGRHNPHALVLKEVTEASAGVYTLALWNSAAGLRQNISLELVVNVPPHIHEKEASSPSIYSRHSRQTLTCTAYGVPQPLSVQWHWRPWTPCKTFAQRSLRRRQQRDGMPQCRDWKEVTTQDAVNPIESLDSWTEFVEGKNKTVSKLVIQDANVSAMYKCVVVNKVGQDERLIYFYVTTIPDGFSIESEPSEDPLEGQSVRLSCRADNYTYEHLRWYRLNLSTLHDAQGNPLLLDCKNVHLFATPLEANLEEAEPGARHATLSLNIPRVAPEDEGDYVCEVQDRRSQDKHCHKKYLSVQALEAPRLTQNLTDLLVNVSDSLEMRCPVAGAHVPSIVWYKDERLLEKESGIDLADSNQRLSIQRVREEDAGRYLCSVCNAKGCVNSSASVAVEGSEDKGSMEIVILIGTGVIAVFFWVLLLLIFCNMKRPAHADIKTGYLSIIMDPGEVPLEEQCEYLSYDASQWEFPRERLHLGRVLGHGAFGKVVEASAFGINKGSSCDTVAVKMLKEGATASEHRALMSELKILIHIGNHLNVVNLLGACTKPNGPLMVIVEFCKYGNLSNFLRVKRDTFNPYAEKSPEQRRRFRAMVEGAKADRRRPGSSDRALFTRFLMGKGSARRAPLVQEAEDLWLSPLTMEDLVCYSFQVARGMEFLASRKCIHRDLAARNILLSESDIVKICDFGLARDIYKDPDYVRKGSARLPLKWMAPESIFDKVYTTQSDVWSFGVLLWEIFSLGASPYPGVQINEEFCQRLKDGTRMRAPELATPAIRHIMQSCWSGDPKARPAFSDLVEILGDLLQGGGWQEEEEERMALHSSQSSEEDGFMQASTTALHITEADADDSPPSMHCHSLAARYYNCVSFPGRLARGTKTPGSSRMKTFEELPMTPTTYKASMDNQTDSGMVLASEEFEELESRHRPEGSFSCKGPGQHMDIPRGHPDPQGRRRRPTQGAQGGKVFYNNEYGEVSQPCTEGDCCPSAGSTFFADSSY

In the case of `COc1cc2nccc(Oc3ccc(NC(=O)Cc4ccc(Cl)c(C(F)(F)F)c4)cc3)c2cc1OC`, the TGI [1] is reported as “Dose-dependent effect”, the TGI [2] is reported as “Dose-dependent effect” and the Activity [3] is reported as 0.09 g. For the same compound, the IC50 [4] was 0.008 µM, the IC50 [5] was 0.121 µM and the IC50 [6] was 0.034 µM. For the same compound, the GI50 [7] was 0.003 µM, the GI50 [8] was 0.522 µM and the EC50 [9] was < 0.1 µM. For the same compound, the EC50 [10] was < 0.1 µM, the EC50 [11] was < 0.1 µM and the EC50 [12] was < 0.1 µM. The EC50 [13] was < 0.1 µM, the EC50 [14] was < 0.1 µM and the EC50 [15] was < 0.1 µM. For the same compound, the EC50 [16] was < 0.1 µM, the EC50 [17] was < 0.1 µM and the EC50 [18] was < 0.1 µM. The inhibition [19] was “Active”, the Activity [20] was “Dose-dependent effect” and the Activity [21] was “Dose-dependent effect”. The AUC(0-t) [22] was 2.55 µg·h/mL, the half-life [23] was 15.8 h and the Cmax [24] was 0.66 µg/mL. For the same compound, the AUC(0-t) [25] was 25.1 µg·h/mL, the Tmax [26] was 9 h and the Cmax [27] was 1.64 µg/mL. For the same compound, the AUC(0-t) [28] was 12.6 µg·h/mL, the Tmax [29] was 4 h and the half-life [30] was 4.5 h. For the same compound, the half-life [31] was 20.6 h, the Cmax [32] was 1.11 µg/mL and the inhibition [33] was “Tde”. For the same compound, the inhibition [34] was “inactive”, the inhibition [35] was “inactive” and the inhibition in vivo at 100 mg/kg/day [36] was 100%. The inhibition in vivo at 40 mg/kg/day [37] was 88.9%, the inhibition in vivo at 80 mg/kg/day [38] was 92.7% and the TGI [39] was “Dose-dependent effect”. For the same compound, the inhibition in vivo at 40 mg/kg/day [40] was 96.9%, the Activity [41] was 0.27 g and the TGI [42] was “Dose-dependent effect”. For the same compound, the TGI [43] was “Dose-dependent effect”, the GI50 [44] was 0.026 µM and the GI50 [45] was 0.013 µM.

With `CCN(CC)CCNC(=O)c1c(C)[nH]c(/C=C2\C(=O)Nc3ccc(F)cc32)c1C` [SUNITINIB] the inhibition [46] was “Active”, the inhibition [47] was “Active” and the inhibition [48] was “Active”. The inhibition [49] was “Active”, the inhibition [50] was “Active” and the inhibition [51] was “Active”. For the same compound, the inhibition [52] was “Active”.
